Test results from PMC6278385, “Preclinical Pharmacokinetics of C118P, a Novel Prodrug of Microtubules Inhibitor and Its Metabolite C118 in Mice, Rats, and Dogs” (Molecules, 2018).

Columns and labels:
[1] = Plasma protein binding by ultrafiltration; type: in vitro ADME, beagle dogs; conditions: beagle, dog plasma, read-out: fu (fraction unbound);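 further: fu expressed in percent not as a fraction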
Method: Both C118P and C118 were stable in the plasma with EDTA as anticoagulant. The non-specific binding to the ultrafilter membrane was negligible. The extent of plasma protein binding was reported as a fraction unbound (fu, %) value which was calculated using the formula fu = PF/TC × 100%, where TC is test compound (C118P or C118) concentration in sample before ultrafiltration, and PF is the test compound concentration in the ultrafiltrate (Table 1).
Plasma protein binding of C118P and C118 were determined by ultrafiltration at four concentrations (C118P: 400, 4000, 40,000, and 400,000 ng/mL, C118: 20, 200, 2000, and 20,000 ng/mL) in pooled plasma from Sprague-Dawley rats, beagle dogs, and humans. Stock solutions of C118P and C118 dissolved in methanol were diluted with blank plasma to achieve the test concentrations (the methanol volume is less than 10% of the plasma). The plasma was incubated for 1 h in a water bath at 37 °C. The total concentration of C118P and C118 of spiked plasma (TC) was analyzed by previously described methods. Ultrafiltration was performed with activated high speed centrifugal tubes (Millipore, Burlington, MA, USA). Plasma samples (0.4 mL) were added to the upper layer of the high speed centrifugal tubes, and then centrifuged at 12,000 g for 10 min. The concentration of unbound C118P and C118 in filtrate (PF) was similarly determined by the previously described methods. The percentage of free fraction (fu) of C118P and C118 was calculated as follows: fu = (PF/TC) × 100%.

[2] = Metabolic stability in liver microsomes; type: in vitro ADME, human
Method: The in vitro metabolic stability of C118P and C118 were estimated in mice, rat, dog, monkey, and human liver microsomes (Research Institute for Liver Diseases Co. Ltd (Shanghai, China)). The incubation mixture contains C118P or C118, NADP (1.0 mM), G-6-P (10 mM), PDH (2 units/mL), MgCl2 (10 mM), and liver microsomes (mice, rats, dogs, monkeys, or humans, 1.0 mg protein/mL) in phosphate buffer. A total of 200 μL of the mixture was removed and quenched with 600 μL acetonitrile in an ice bath at 0, 15, 30, 60, 120, and 240 min after the addition of NADPH.
CLint, in vitro (the in vitro intrinsic clearance, Equation (1)) was calculated from the t1/2 of C118 disappearance, where Cprotein is the protein concentration during the incubation, and t1/2 was determined by the slope (k) of the log-linear regression analysis of the concentration versus time profiles; thus, t1/2 = ln2/k. […] The in vivo hepatic clearance (CLH, Equation (3)) was then calculated by using CLint and hepatic blood flow, Q ([…] mL·min^−1·kg^−1 in rats, dogs, monkey, and humans, respectively), in the well-stirred liver model disregarding all binding. The hepatic extraction ratio was calculated as CLH divided by Q. CLint, in vitro = (0.693/t1/2) × (1/Cprotein)(1) CLint = CLint, in vitro × (mg protein/g liver weight) × (gliver weight/kg body weight)(2) CLH = (Q × CLint)/(Q + CLint)(3)

[3] = Tandem two-compartment PK model of C118P and C118; type: in vivo, rat; conditions: for K12 / K21 / V1 / K10: rat; for K12 / K21 / V1: two-compartmental model parameter (Table S1); for K10: two-compartmental model, K10 supposed to be transformation rate of C118P into C118, simulated
Description: Due to the rapid transformation of C118P into C118, there is no direct way to calculate the rate of transformation, thus a two-compartment model with metabolism involved was developed (Figure S3). The transformation rate from C118P into C118 was simulated by fitting the two-serial data of prodrug C118P and C118 in rats and dogs.
3. The pharmacokinetic profile of C118P and C118 was simulated by two compartmental models. To simplify the model, the excretion rate of C118P from central compartment was supposed to be zero. In this model, both C118P and C118 were described by two-compartmental model, with elimination rate of k(0,3) for C118. The connection between C118P and C118 is by the uniflow of transformation rate of k(3,1) since the metabolism of C118P to C118 is irreversible(Figure S3).
Figure S3. The pharmacokinetic model of C118P and C118 in rat after i.v C118P. ex1: the injection dose of C118P, s1: concentration of C118 in central compartment. s2: concentration of C118 in central compartment, q1 and q3 represent the central compartment of C118P and C118, respectively.
The q2 and q4 represent the peripheral compartment of C118P and C118, respectively. k(0,3) represents the elimination rate of C118 from central compartment. k(3,1) represents the transformation rate of C118P to C118. k(2,1) and k(4,3) represent the distribution rate of C118P and C118 from central compartment to peripheral compartment. k(1,2) and k(3,4) represent the return rate of C118P and C118 from peripheral compartment to central compartment.
For prodrug pharmacokinetic prediction, the transformation of prodrug to the active drug should be studied in different system to get the right data. With the help of modeling, the transformation ratio of C118P to C118 was calculated by a tandem two-compartment model (SAAMII, University of Washington). In simulation study, the initial parameters are very important for accurate prediction.
The initial compartmental model parameters of rat and dog were first evaluated by Winnonlin using two-compartmental model at low dose, with intravenous for C118P and extra vessel for C118 since […]
(1 picture or pasted object on this page, not shown here)
C118 was transformed from C118P. The initial parameters used in the simulation were listed in Table S1. Using these parameters, the simulation of PK profiles of rat and dog are well fit to the data from in vivo at higher dose (Figure S4). The simulation of C118P and C118, the transformation rate of C118P to C118 is calculated and transformation ratio (k) is about 18.3671/h and12.588 1/h for rats and dogs, respectively.
Figure S4. The simulation of PK profile at 20 mg/kg in rat(A) and 6 mg/kg(B) in dog based on initial parameters calculated by Winnonlin. (s1 represent the simulated data for C118 and s2 represent the simulated data for C118P, plasma 1 represent the experimental data for C118 and plasma 2 represent the experimental data for C118P.) […]

fraction unbound at 1 h, 200 ng/mL ([1]; pooled plasma, C118 200 ng/mL)	fraction unbound at 1 h, 2000 ng/mL ([1]; pooled plasma, C118 2000 ng/mL)	fraction unbound at 1 h, 20000 ng/mL ([1]; pooled plasma, C118 20,000 ng/mL)	CLint, in vitro ([2]; human liver microsomes) [μL·min^−1·mg^−1 Protein]	half-life ([2]; human liver microsomes, 1.0 mg protein/mL, C118 disappearance) [min]	CLint ([2]; human, scaled from CLint, in vitro) [mL/min/kg]	Extrapolated CLH ([2]; human, well-stirred liver model) [mL/min/kg]	Compound	fraction unbound at 1 h, 400 ng/mL ([1]; C118P 400 ng/mL)	fraction unbound at 1 h, 4000 ng/mL ([1]; C118P 4000 ng/mL)	fraction unbound at 1 h, 40000 ng/mL ([1]; C118P 40,000 ng/mL)	fraction unbound at 1 h, 400000 ng/mL ([1]; C118P 400,000 ng/mL)	stability in liver microsomes ([2]; human liver microsomes (Figure S1))	K12 [3] [h⁻¹]	K21 [3] [h⁻¹]	V1 [3] [L/kg]	K10 [3] [h⁻¹]	transformation ratio (k) of C118P to C118 ([3]; rats, simulated with tandem two-compartment model) [h⁻¹]
–	–	–	–	–	–	–	COc1cc(OC)cc(-c2nc[nH]c2-c2ccc(OC)c(OP(=O)([O-])[O-])c2)c1.[Na+].[Na+] [C118P]	0.019 ± 0.001	0.021 ± 0.001	0.027 ± 0.002	0.086 ± 0.003	quite stable	6.535	18.281	0.05441	18.369	~18.367
0.058 ± 0.002	0.062 ± 0.004	0.054 ± 0.004	58.2	11.9	47.9	14.1	COc1cc(OC)cc(-c2nc[nH]c2-c2ccc(OC)c(O)c2)c1 [C118]	–	–	–	–	–	0.3516	0.0121	2.708	0.9897	–
